In patent US6365175B1 (Unilever Patent Holdings, priority 1998, dated 2002):
Entries after “also recorded” stand apart in the source; their conditions may differ.

Columns and labels:
decorin = assay: Dot blot assay for decorin protein in dermal fibroblast conditioned medium; assay type: cell-based, human; conditions: for decorin levels in fibroblasts: single agent, in words; for Decorin (% of control): fibroblasts, mean ± SD
Description: Primary human foreskin fibroblasts at passage 2 (P2) were seeded into 12-well plates at 10000 cells/cm^2 and maintained for 24 hours in an atmosphere of 5% carbon dioxide and 4% oxygen in Dulbeccos Modified Eagles Medium (DMEM) supplemented with 10% foetal calf serum. After this time the cells were washed with serum free DMEM and then incubated in fresh serum free DMEM for a further 60 hours. The fibroblast monolayers were then washed again with serum free DMEM. […] This fibroblast conditioned medium was either analysed immediatedly or snap frozen in liquid nitrogen and stored at −70° C. for future analysis. The cells were then counted and data from the dot-blot analysis subsequently standardised to cell number.
Samples of conditioned medium from dermal fibroblasts treated with vehicle (as a control) or test reagents were supplemented with 20 mM dithiothreitol (1:10 dilution of 200 mM stock solution) and 0.1% sodium dodecylsulphate (1:100 dilution of 10% stock solution), mixed well and then incubated at 75° C. for 2 minutes. A standard for the assay was generated by serial dilution of neat fibroblast conditioned medium from fibroblasts seeded at 10000 cells/cm^2 in a 175 cm^2 flask and maintained in serum free DMEM as described above. Assay samples were subsequently applied in triplicate to a prewetted sheet of Immobilon-P transfer membrane using the 96-well Bio-Dot Apparatus from Bio-Rad as described in the manufacturers guidelines. Approximately 200 μl of medium was applied per well. The medium was allowed to filter through the membrane under gravity (30 minutes) after which the membrane was washed twice with PBS (200 μl). These PBS washes were allowed to filter through the membrane under gravity (2×15 minutes). The Bio-Dot apparatus was then attached to a vacuum manifold and a third and final PBS wash carried out under suction. The apparatus was disassembled, the membrane removed and quickly cut as required before being placed in blocking buffer overnight at 4° C. Membranes prepared for decorin analysis were blocked with 3% (w/v) bovine serum albumin (BSA)/ 0.1% (v/v) Tween 20 in phosphate buffered saline (PBS), whilst those for procollagen-I analysis were blocked with 5% (w/v) non fat dried milk powder/0.05% Tween 20 in PBS. The following day, the membranes were probed with 1:10000 dilution of primary antibodies to human decorin (rabbit polyclonal; Biogenesis) for 2 hours at room temperature. The membranes were subsequently washed with TBS/0.05% Tween 20 (3×5 minutes) and then incubated with 1:1000 dilution of ^125I-conjugated anti-rat or anti-rabbit F(ab′)2 fragments (Amersham) as required for 1 hour at room temperature. Following this the Immobilon strips were again washed with TBS/Tween 20 (3×5 minutes) before being allowed to dry in air at room temperature. The dried membranes were wrapped in cellophane and exposed to a Molecular Dynamics storage phosphor screen for 16-18 hours. At the end of this time the exposed screen was scanned by a phosphorimager (Molecular Dynamics Phosphorimager SF) using ImageQuant™ software. Dot intensity was assessed by computer-assisted image analysis using the quantification tools in ImageQuant™, standardised to cell number and the effects of various test reagents on decorin and procollagen-I synthesis were determined relative to a vehicle treated control value of 100 arbitrary units.

[1] = tested on: Prostaglandin E2 (PGE2) production; assay: PMA-induced PGE2 production, fibroblast cell assay; assay type: cell-based, human; conditions: FIG. 1
Description: (§1) It is emphasized that the anti-inflammatory effects were determined by in vitro tests wherein the production of intracellular adhesion molecules (=ICAM) and Prostaglandin E2 (=PGE2) production by the human skin fibroblasts is measured after being induced by the inflammatory modulus phorbyl myristyl acetate (PMA). Effects on basal PGE2 levels in keratinocytes are also measured. A reduction of the levels of ICAM and PGE2 is indicative for the anti-inflammatory effect.
Primary human foreskin fibroblasts at passage 2 (P2) were seeded into 96-well plates at 10000 cells/well and maintained for 24 hours in an atmosphere of 5% carbon dioxide in Dulbeccos Modified Eagles Medium (DMEM) supplemented with 10% foetal calf serum. […] The fibroblasts/media were then analysed as described below immediately or snap frozen in liquid nitrogen and stored at −70° C. for future analysis. The cells were then counted to ensure no effect on cell number.
Volumes of 50 μl culture medium were taken for PGE2 assay after gently shaking the culture plate. PGE2 levels in the medium were determined with a Biotrak PGE2 immunoassay kit (Amersham, UK). The assay is based on the competition between unlabelled PGE2 in the sample and a fixed quantity of horseradish peroxidase labelled PGE2 for a limited amount of fixed PGE2 specific antibody. […]

[2] = tested on: intracellular adhesion molecules (ICAM); assay: Glutathione (GSH) depletion model in fibroblasts (BSO and PMA), ICAM; assay type: cell-based, human; conditions: BSO and PMA treated fibroblasts, FIG. 3
Description: (§2) Primary human foreskin fibroblasts at passage 2 (P2) were seeded into 96-well plates at 10000 cells/well and maintained for 24 hours in an atmosphere of 5% carbon dioxide in Dulbeccos Modified Eagles Medium (DMEM) supplemented with 10% foetal calf serum. […] Phorbal myristate acetate (PMA) in ethanol/cell media ([…]) was added to the media and the cells incubated for a futher 24 hours. PMA represents an external stressor which induces oxidative stress and inflammatory responses in cells. The fibroblasts/media were then analysed as described below immediately or snap frozen in liquid nitrogen and stored at −70° C. for future analysis. The cells were then counted to ensure no effect on cell number.
Media were discarded and cells washed with Dulbecco PBS. To the washed cells, 150 μl 0.1% Triton X-100 (Sigma) was added for 3 minutes to extract ICAM from cell membrane. The extracts were transferred to Eppendoff centrifuge tubes and centrifuged at 1000 g for 2 min to remove cell debris. A volume of 100 μl supernatant was used for ICAM assay. The soluble ICAM-1 was assessed with commercially available immunoenzymometric assay kit (R&D Systems). Concentrations of ICAM-1 in the samples were determined based on parallelly running standard curve.
L-Buthionine sulfoximine (BSO, Sigma), a specific inhibitor of γ-glutamylcysteine synthetase, was used to deplete intracellular GSH levels. This depletion model is based on the natural degradation of GSH while synthesis is inhibited. BSO is added to the fibroblast cell media after 24 hours (0.25 mM), this is predissolved in DMSO (DMSO, final concentration <1%). In addition, where stated, the antioxidants Epigallocatechingallate (ECGC) and Quercetin were also added to the media after 24 h. The former was dissolved directly in the media, quercetin was initially dissolved in ethanol, this was then diluted 500 fold into the media.

[3] = tested on: intracellular adhesion molecules (ICAM); assay: ICAM-1 assay in fibroblasts, basal and PMA-induced; assay type: cell-based, human; conditions: FIG. 2
Description: as §1
as §2, with “PMA represents an external stressor which induces oxidative stress and inflammatory responses in cells.” left out
Media were discarded and cells washed with Dulbecco PBS. […] The soluble ICAM-1 was assessed with commercially available immunoenzymometric assay kit (R&D Systems). Concentrations of ICAM-1 in the samples were determined based on parallelly running standard curve.

[4] = tested on: basal PGE2 levels in keratinocytes; assay: Keratinocyte PGE2 assay; assay type: cell-based; conditions: 0.1 μM and 1 μM, 24 h
Description: The medium was then removed and assayed for the pro-inflammatory PGE2 content by Enzyme-linked immunoassay.

Row | Compound | decorin levels in fibroblasts (decorin) | Decorin (% of control) (decorin; 1 μg / ml) | Decorin (% of control) (decorin; 2.5 μg / ml) | Decorin (% of control) (decorin; 5 μg / ml) | ICAM response ([2]; antioxidant alone 10 μM) | further results
1 | CCCCCCCCCCC/C=C\CCCCC(=O)O [Petroselinic acid] | boost decorin levels | – | – | – | – | PGE2 response ([1]; PMA treated cells pre-incubated with 0.1, 1.0, 10 and 100 μM): significant decrease; inflammatory response as measured by PGE2 production ([1]; PMA-challenged fibroblasts, 0.1 μM): dramatically reduces; ICAM response ([2]; petroselinic acid alone 0.01 μM): no effect; production of ICAM / ICAM response ([3]; PMA-stimulated fibroblasts pre-incubated with 0.1, 1.0, 10 and 100 μM): reduction in ICAM; also recorded: significant decrease; production of ICAM ([3]; basal condition (control), fibroblasts, 100 μM): reduction in ICAM; basal levels of secreted PGE2 ([4]; FIG. 5): significantly reduce; basal levels of secreted PGE2 ([4]; FIG. 5, listed as petroselinic acid): reduced the basal levels
2 | O=c1c(-c2ccc(O)cc2)coc2cc(O)cc(O)c12 [genistein] | can also exert this effect | – | – | – | – | –
3 | O=c1c(-c2ccc(O)cc2)coc2cc(O)ccc12 [diadzein] | can also exert this effect | – | – | – | – | –
4 | O=C(O[C@@H]1Cc2c(O)cc(O)cc2O[C@@H]1c1cc(O)c(O)c(O)c1)c1cc(O)c(O)c(O)c1 [EGCG, Epigallocatechingallate] | can also exert this effect | 167.5 ± 11.8 % of control | 188.6 ± 9.4 % of control | 258.2 ± 6.1 % of control | decrease the ICAM response | –
5 | O=c1c(O)c(-c2ccc(O)c(O)c2)oc2cc(O)cc(O)c12 [Quercetin] | – | – | – | – | decrease the ICAM response | –
6 | O=C(O)c1cc(O)c(O)c(O)c1 [Gallic acid] | can also exert this effect | 136.9 ± 4.2 % of control | 163.4 ± 6.5 % of control | 161.8 ± 6.6 % of control | – | –
